A short description of data set [1]: Ratio of AUClast in CD1 mouse lung to plasma assessed as (12aR)-12-[(R)-(3,4-Difluorophenyl)(phenyl)methyl]-7-hydroxy3,4,12,12a-tetrahydro-1H-[1,4]oxazino[3,4-c]pyrido[2,1-f ][1,2,4]-triazine-6,8-dione level at 15 mg/kg, po administered as single dose by LC-MS/MS analysis. The class given is ADME, organism-based. The settings on record: other tissue.
Data set [2] in a line: AUClast in CD1 mouse plasma assessed as (12aR)-12-[(R)-(3,4-Difluorophenyl)(phenyl)methyl]-7-hydroxy3,4,12,12a-tetrahydro-1H-[1,4]oxazino[3,4-c]pyrido[2,1-f ][1,2,4]-triazine-6,8-dione level at 15 mg/kg, po administered as single dose by LC-MS/MS analysis. The class given is ADME, organism-based. More on the design: dose 15 mg/kg, route oral, time 0 - last. The settings on record: in vivo.

Data set [3] can be described thus: Ratio of Cmax in CD1 mouse lung to plasma assessed as (12aR)-12-[(R)-(3,4-Difluorophenyl)(phenyl)methyl]-7-hydroxy3,4,12,12a-tetrahydro-1H-[1,4]oxazino[3,4-c]pyrido[2,1-f ][1,2,4]-triazine-6,8-dione level at 15 mg/kg, po administered as single dose by LC-MS/MS analysis. Particulars: other tissue. The class given is ADME, organism-based.
A short description of data set [4]: Cmax in CD1 mouse plasma assessed as (12aR)-12-[(R)-(3,4-Difluorophenyl)(phenyl)methyl]-7-hydroxy3,4,12,12a-tetrahydro-1H-[1,4]oxazino[3,4-c]pyrido[2,1-f ][1,2,4]-triazine-6,8-dione level at 15 mg/kg, po administered as single dose by LC-MS/MS analysis. Type of data set: ADME, organism-based. More on the design: dose 15 mg/kg, route oral. The settings on record: in vivo.

Data set [5] can be described thus: Cmax in CD1 mouse lung assessed as (12aR)-12-[(R)-(3,4-Difluorophenyl)(phenyl)methyl]-7-hydroxy3,4,12,12a-tetrahydro-1H-[1,4]oxazino[3,4-c]pyrido[2,1-f ][1,2,4]-triazine-6,8-dione level at 15 mg/kg, po administered as single dose by LC-MS/MS analysis. Particulars: in vivo. Also noted: dose 15 mg/kg, route oral. The class given is ADME, organism-based.
Data set [6] is described as follows: Oral bioavailability in CD1 mouse assessed as (12aR)-12-[(R)-(3,4-Difluorophenyl)(phenyl)methyl]-7-hydroxy3,4,12,12a-tetrahydro-1H-[1,4]oxazino[3,4-c]pyrido[2,1-f ][1,2,4]-triazine-6,8-dione level at 15 mg/kg administered as single dose by LC-MS/MS analysis. Type of data set: ADME, organism-based. The settings on record: in vivo.
The nature of data set [7]: AUClast in CD1 mouse lung assessed as (12aR)-12-[(R)-(3,4-Difluorophenyl)(phenyl)methyl]-7-hydroxy3,4,12,12a-tetrahydro-1H-[1,4]oxazino[3,4-c]pyrido[2,1-f ][1,2,4]-triazine-6,8-dione level at 15 mg/kg, po administered as single dose by LC-MS/MS analysis. The settings on record: in vivo. The class given is ADME, organism-based.
A short description of data set [8]: AUClast in CD1 mouse lung assessed as (12aR)-12-[(S)-(3,4-Difluorophenyl)(phenyl)methyl]-7-hydroxy3,4,12,12a-tetrahydro-1H-[1,4]oxazino[3,4-c]pyrido[2,1-f ][1,2,4]triazine-6,8-dione level at 15 mg/kg, po administered as single dose by LC-MS/MS analysis. Particulars: in vivo. Type of data set: ADME, organism-based.
A short description of data set [9]: AUClast in CD1 mouse plasma assessed as (12aR)-12-[(S)-(3,4-Difluorophenyl)(phenyl)methyl]-7-hydroxy3,4,12,12a-tetrahydro-1H-[1,4]oxazino[3,4-c]pyrido[2,1-f ][1,2,4]triazine-6,8-dione level at 15 mg/kg, po administered as single dose by LC-MS/MS analysis. Type of data set: ADME, organism-based. More on the design: dose 15 mg/kg, route oral, time 0 - last. Particulars: in vivo.

Data set [10] can be described thus: Stability in simulated gastric fluid assessed as parent compound remaining at 1 uM measured after 4 hrs at pH 1.2 by LC-MS/MS analysis. The class given is physicochemical. Particulars: read-out: Stability.
Data set [11] in a line: Ratio of AUClast in CD1 mouse lung to plasma assessed as (12aR)-12-[(S)-(3,4-Difluorophenyl)(phenyl)methyl]-7-hydroxy3,4,12,12a-tetrahydro-1H-[1,4]oxazino[3,4-c]pyrido[2,1-f ][1,2,4]triazine-6,8-dione level at 15 mg/kg, po administered as single dose by LC-MS/MS analysis. The settings on record: other tissue. The class given is ADME, organism-based.
The nature of data set [12]: Stability in simulated intestinal fluid assessed as parent compound remaining at 1 uM measured after 4 hrs at pH 1.2 by LC-MS/MS analysis. Type of data set: physicochemical. The settings on record: read-out: Stability.
Data set [13] is described as follows: Ratio of Cmax in CD1 mouse lung to plasma assessed as (12aR)-12-[(S)-(3,4-Difluorophenyl)(phenyl)methyl]-7-hydroxy3,4,12,12a-tetrahydro-1H-[1,4]oxazino[3,4-c]pyrido[2,1-f ][1,2,4]triazine-6,8-dione level at 15 mg/kg, po administered as single dose by LC-MS/MS analysis. Type of data set: ADME, organism-based. Particulars: other tissue.
Data set [14] in a line: Cmax in CD1 mouse plasma assessed as (12aR)-12-[(S)-(3,4-Difluorophenyl)(phenyl)methyl]-7-hydroxy3,4,12,12a-tetrahydro-1H-[1,4]oxazino[3,4-c]pyrido[2,1-f ][1,2,4]triazine-6,8-dione level at 15 mg/kg, po administered as single dose by LC-MS/MS analysis. The class given is ADME, organism-based. Particulars: in vivo. Also noted: dose 15 mg/kg, route oral.
A short description of data set [15]: Oral bioavailability in CD1 mouse assessed as (12aR)-12-[(S)-(3,4-Difluorophenyl)(phenyl)methyl]-7-hydroxy3,4,12,12a-tetrahydro-1H-[1,4]oxazino[3,4-c]pyrido[2,1-f ][1,2,4]triazine-6,8-dione level at 15 mg/kg administered as single dose by LC-MS/MS analysis. Type of data set: ADME, organism-based. The settings on record: in vivo.
Data set [16] can be described thus: Cmax in CD1 mouse lung assessed as (12aR)-12-[(S)-(3,4-Difluorophenyl)(phenyl)methyl]-7-hydroxy3,4,12,12a-tetrahydro-1H-[1,4]oxazino[3,4-c]pyrido[2,1-f ][1,2,4]triazine-6,8-dione level at 15 mg/kg, po administered as single dose by LC-MS/MS analysis. Type of data set: ADME, organism-based. More on the design: dose 15 mg/kg, route oral. Particulars: in vivo.

By Cmax is commonly meant the highest concentration seen after dosing.

Consider `COC(=O)OCOc1c2n(ccc1=O)N([C@H](c1ccccc1)c1ccc(F)c(F)c1)[C@@H]1COCCN1C2=O`, for which the “Ratio AUC” value in data set [1] was 3.2. The AUClast in [2] came to 9448 ng·h/mL; in data set [7], 30130 ng·h/g. In data set [3], the Ratio is recorded as 2.1. Also, the Cmax in [4] was found to be 2090 ng/mL; in [5], 4464 ng/g. Also, in data set [6], the F is listed as 56.9%.
For the molecule `COC(=O)OCOc1c2n(ccc1=O)N([C@@H](c1ccccc1)c1ccc(F)c(F)c1)[C@@H]1COCCN1C2=O`, the AUClast in data set [8] amounted to 8806 ng·h/g; in data set [9], 2078 ng·h/mL. The remaining at 4 h, 1 µM in data set [10] is 97.7%; in [12], 95.8%. In addition, in [11], the “Ratio AUC” value amounted to 4.2. The Ratio in data set [13] was 3.7. In addition, the Cmax amounted to 397 ng/mL in data set [14] and 1476 ng/g in [16]. Further, the F in data set [15] is recorded as 29.9%.

The values are drawn from ChEMBL document CHEMBL4622979, “Non-rigid Diarylmethyl Analogs of Baloxavir as Cap-Dependent Endonuclease Inhibitors of Influenza Viruses” (J Med Chem, 2020).
